≈ marks a conversion by molar mass, not a printed value. Entries after “also recorded” stand apart in the source; their conditions may differ. Read-outs that look alike come from different tables or passages of the source.
Key:
[1] = system: P-388 (suspension culture of a lymphoid neoplasm from DBA/2 mouse); assay: In vitro antitumor activity, P-388 cells; assay type: cell-based; settings: for IC50: Mus musculus, P388, 72 h, read-out: IC50 P-388
From the text: (§1) The antitumor activity has been deteced in vitro by culturing the tumor cells following the methodology described by Bergeron, et al.(2), and by Schroeder, et al. (6). Activity against several human tumors as leukaemia, colon carcinoma, NSC lung carcinoma, melanoma, and the like has been observed.
(§2) Biological activity: the antitumor cells employed have been P-388 (suspension culture of a lymphoid neoplasm from DBA/2 mouse), A-549 (monolayer culture of a human macrocytic lung carcinoma, HT-29 (monolayer culture of a human colon carcinoma), and MEL-28 (monolayer culture of a human melanoma), and the other indicated cell lines.
(§3) P-388 cells were seeded into 16 mm wells at 1×10^4 cells per well in 1 ml aliquots of MEM 5FCS containing the indicated concentration of drug. A separate set of cultures without drug were seeded as control of growth to ensure that cells remained in exponential phase of growth. All determinations were carried out duplicated. After three days of incubation at 37° in 10% CO2 atmosphere with 98% humidity, the wells were stained with 0.1% Crystal Violet. The IC50 was calculated by comparing the growth in wells with drug with the growth in control wells without the drug.
(§4) In Table 5 are presented the activity expressed as IC50 in mcg/ml

[2] = system: HT-29 (monolayer culture of a human colon carcinoma); assay: In vitro antitumor activity, HT-29 cells; assay type: cell-based
From the text: as §1, §2, §3, §4

[3] = system: A-549 (monolayer culture of a human macrocytic lung carcinoma); assay: In vitro antitumor activity, A-549 cells; assay type: cell-based
From the text: as §1, §2, §3, §4

CV1 = assay: In vitro activity, CV1 cells; assay type: cell-based; settings: Cercopithecidae, CV-1
From the text: as §1, §2, §3, §4

[4] = system: MEL-28 (monolayer culture of a human melanoma); assay: In vitro antitumor activity, MEL-28 cells; assay type: cell-based
From the text: as §1, §2, §3, §4

[5] = system: several mammalian cancer cell lines; assay: In vitro antitumor activity, several mammalian cancer cell lines; assay type: cell-based
From the text: as §1

P388MDR = assay: In vitro antitumor activity, P388MDR cells; assay type: cell-based, murine
From the text: as §1, §2, §3, §4

[6] = three days of incubation, Crystal Violet

Structure (SMILES)	IC50 P-388 [1, 6] [µg/mL]	IC50 HT-29 [2] [µg/mL]	IC50 A-549 [3] [µg/mL]	IC50 MEL-28 [4] [µg/mL]	IC50 P388MDR (P388MDR) [µg/mL]	also measured
CCCC1(O)C(O)C(C)C/C=C/C=C/C(CC(C)O)CCC2OC3(CCC(C)C(C(C)C(O)CC)O3)C(C)C(OC(=O)/C=C/C(C)C(O)C(C)C(O)C(O)C(O)C(O)C1O)C2C (centres unmarked) [IB-96212B]						IC50 [1, 6]: 0.001 µg/mL (≈ 0.00113 µM); IC50 ([2]; Homo sapiens, HT-29; read-out: IC50 HT-29): 1.2 µg/mL (≈ 1.36 µM); IC50 ([3]; Homo sapiens, A549; read-out: IC50 A-549): 1 µg/mL (≈ 1.13 µM); IC50 (CV1): 1 ng/mL (≈ 0.00113 µM); IC50 ([4]; Homo sapiens, SK-MEL-28; read-out: IC50 MEL-28): 1 µg/mL (≈ 1.13 µM); antitumor activity against several mammalian cancer cell lines (in words) [5]: activity comparable to the parent IB-96212; also recorded: good antitumor actvity
COc1cccc2c1C(=O)c1c(O)c3c(c(O)c1C2=O)C[C@@](O)(C(=O)CO)C[C@@H]3O[C@H]1C[C@H](N)[C@H](O)[C@H](C)O1 [adriamicin]	0.02 (≈ 0.0368 µM)	0.05 (≈ 0.092 µM)	0.002 (≈ 0.00368 µM)	0.02 (≈ 0.0368 µM)	1 (≈ 1.84 µM)	
N.N.[Cl][Pt][Cl] [cis-platin]	2.5	5	2.5	2.5	2.5	
COc1cc([C@@H]2c3cc4c(cc3[C@@H](O[C@@H]3O[C@@H]5CO[C@@H](C)O[C@H]5[C@H](O)[C@H]3O)[C@H]3COC(=O)[C@H]23)OCO4)cc(OC)c1O [etopoxide]	0.1 (≈ 0.17 µM)	1 (≈ 1.7 µM)	0.1 (≈ 0.17 µM)	0.5 (≈ 0.85 µM)	10 (≈ 17 µM)	
CC(=O)O[C@H]1C(=O)[C@@]2(C)[C@H]([C@H](OC(=O)c3ccccc3)[C@]3(O)C[C@H](OC(=O)[C@H](O)[C@@H](NC(=O)c4ccccc4)c4ccccc4)C(C)=C1C3(C)C)[C@]1(OC(C)=O)CO[C@@H]1C[C@@H]2O [taxol]						IC50 [1]: 0.2 µg/mL (≈ 0.234 µM); IC50 ([2]; Homo sapiens, HT-29, read-out: IC50 HT-29): 0.002 µg/mL (≈ 0.00234 µM); IC50 ([3]; Homo sapiens, A549, read-out: IC50 A-549): 0.002 µg/mL (≈ 0.00234 µM); IC50 ([4]; Homo sapiens, SK-MEL-28, read-out: IC50 MEL-28): 0.002 µg/mL (≈ 0.00234 µM); IC50 (P388MDR; Mus musculus): > 2 µg/mL

Source: US6395711B1, “Macrolides with antitumor activity” (priority 1997, dated 2002)
